Data: patent US8957077B2, “Pyrazolopyrimidine PDE 10 inhibitors” (Merck Sharp & Dohme Corp., priority 2010, dated 2015)

Target: human PDE10A2 (Homo sapiens (Human), UniProt Q9Y233)
Experiment: PDE10 fluorescence polarization (IMAP FP) inhibition assay
Type: biochemical
Conditions: human PDE10 enzyme, FAM-labeled cAMP substrate, read-out: PDE10A Ki
Experimental: The activity of the compounds in accordance with the present invention as PDE10 inhibitors may be readily determined without undue experimentation using a fluorescence polarization (FP) methodology that is well known in the art (Huang, W., et al.,J. Biomol Screen, 2002, 7: 215).
In a typical experiment the PDE10 inhibitory activity of the compounds of the present invention was determined in accordance with the following experimental method. PDE10A2 was amplified from human fetal brain cDNA (Clontech, Mountain View, Calif.) using a forward primer corresponding to nucleotides 56-77 of human PDE10A2 (Accession No. AF127480, Genbank Identifier 4894716), containing a Kozak consensus sequence, and a reverse primer corresponding to nucleotides 2406-2413 of human PDE10A2 (Accession No. AF127480, Genbank Identifier 4894716). Amplification with Easy-A polymerase (Stratagene, La Jolla, Calif.) was 95° C. for 2 minutes followed by thirty three cycles of 95° C. for 40 seconds, 55° C. for 30 seconds, and 72° C. for 2 minutes 48 seconds. Final extension was 72° C. for 7 minutes. The PCR product was TA cloned into pcDNA3.2-TOPO (Invitrogen, Carlsbad, Calif.) according to standard protocol. AD293 cells with 70-80% confluency were transiently transfected with human PDE10A2/pcDNA3.2-TOPO using Lipofectamine 2000 according to manufacturer specifications (Invitrogen, Carlsbad, Calif.). Cells were harvested 48 hours post-transfection and lysed by sonication (setting 3, 10×5 sec pulses) in a buffer containing 20 mM HEPES, 1 mM EDTA and protease inhibitor cocktail (Roche). Lysate was collected by centrifugation at 75,000×g for 20 minutes. Supernatant containing the cytoplasmic fraction was used for evaluation of PDE10A2 activity. The fluorescence polarization assay for cyclic nucleotide phosphodiesterases was performed using an IMAP® FP kit supplied by Molecular Devices, Sunnyvale, Calif. (product # R8139). IMAP® technology has been applied previously to phosphodiesterase assays (Huang, W., et al., J. Biomol Screen, 2002, 7: 215). Assays were performed at room temperature in 384-well microtiter plates with an incubation volume of 20.2 μL. Solutions of test compounds were prepared in DMSO and serially diluted with DMSO to yield 8 μL of each of 10 solutions differing by 3-fold in concentration, at 32 serial dilutions per plate. 100% inhibition is determined using a known PDE10 inhibitor, which can be any compound that is present at 5,000 times its Ki value in the assay described as follows, such as papaverine (see Siuciak, et al. Neuropharmacology (2006) 51:386-396; Becker, et al. Behav Brain Res (2008) 186(2):155-60; Threlfell, et al., J Pharmacol Exp Ther (2009) 328(3):785-795), 2-{-4-[pyridin-4-yl-1-(2,2,2-trifluoroethyl)-1H-pyrazol-3-yl]phenoxymethyl}quinoline succinic acid or 2-[4-(1-methyl-4-pyridin-4-yl-1H-pyrazol-3-yl)-phenoxymethyl]quinoline succinic acid (see Schmidt, et al. J Pharmacol Exp Ther (2008) 325:681-690; Threlfell, et al., J Pharmacol Exp Ther (2009) 328(3): 785-795). 0% of inhibition is determined by using DMSO (1% final concentrations).
A Labcyte Echo 555 (Labcyte, Sunnyvale, Calif.) is used to dispense […] from each well of the titration plate to the 384 well assay plate. A solution of enzyme ( 1/1600 dilution from aliquots; sufficient to produce 20% substrate conversion) and a separate solution of FAM-labeled cAMP PDE from Molecular Devices (product # R7506), at a final concentration of 50 nM are made in the assay buffer (10 mM Tris HCl, pH 7.2, 10 mM MgCl2, 0.05% NaN3 0.01% Tween-20, and 1 mM DTT). The enzyme and the substrate are then added to the assay plates in two consecutive additions of 10 μL, and then shaken to mix. The reaction is allowed to proceed at room temperature for 30 minutes. A binding solution is then made from the kit components, comprised of 80% Solution A, 20% Solution B and binding reagent at a volume of 1/600 the total binding solution. […]

human PDE10A2, sequence (Q9Y233 267-1055): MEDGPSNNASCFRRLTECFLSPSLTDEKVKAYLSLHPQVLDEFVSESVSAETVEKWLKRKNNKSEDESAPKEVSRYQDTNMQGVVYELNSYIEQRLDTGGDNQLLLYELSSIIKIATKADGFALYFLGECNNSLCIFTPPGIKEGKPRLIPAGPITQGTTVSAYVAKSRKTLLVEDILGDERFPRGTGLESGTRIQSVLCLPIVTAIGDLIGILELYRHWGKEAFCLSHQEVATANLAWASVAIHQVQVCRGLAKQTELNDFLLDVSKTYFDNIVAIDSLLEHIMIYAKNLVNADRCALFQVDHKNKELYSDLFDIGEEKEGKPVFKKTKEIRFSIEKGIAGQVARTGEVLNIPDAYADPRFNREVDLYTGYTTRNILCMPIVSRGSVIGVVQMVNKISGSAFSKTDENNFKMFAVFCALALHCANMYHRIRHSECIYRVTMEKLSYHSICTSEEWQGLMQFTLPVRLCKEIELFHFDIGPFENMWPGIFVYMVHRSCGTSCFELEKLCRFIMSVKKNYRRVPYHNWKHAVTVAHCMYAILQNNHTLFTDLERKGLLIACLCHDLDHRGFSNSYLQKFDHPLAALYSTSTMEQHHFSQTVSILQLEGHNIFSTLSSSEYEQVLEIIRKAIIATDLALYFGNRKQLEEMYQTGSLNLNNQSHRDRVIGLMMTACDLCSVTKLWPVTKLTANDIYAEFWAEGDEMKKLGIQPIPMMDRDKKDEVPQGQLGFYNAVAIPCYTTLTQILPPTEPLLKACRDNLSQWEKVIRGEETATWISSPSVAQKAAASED

Structure (SMILES)	Ki
COc1ccc([C@H]2C[C@@H]2COc2cc(NCc3oc(C)nc3C)n3nccc3n2)nc1 (stereo in doubt) [Compound 1-3, N-[(2,4-dimethyl-1,3-oxazol-5-yl)methyl]-5-{[2-(5-methoxy-pyridin-2-yl)cyclopropyl]-methoxy}pyrazolo [1,5-a]pyrimidin-7-amine]	1.3 nM
Cc1nc(C)c(CNc2cc(C(C)C[C@@H]3C[C@H]3c3ccccn3)nc3ccnn23)s1 (stereo in doubt) [Compound 1-13, N-[(2,4-dimethyl-1,3-thiazol-5-yl)methyl]-5-{1-[2-(pyridin-2-yl)cyclopropyl]propan-2-yl}pyrazolo[1,5-a] pyrimidin-7-amine]	76.9 nM
Cc1ncc(CNc2cc(OC[C@H]3C[C@@H]3c3ccccn3)nc3ccnn23)s1 [Compound 1-4, (S,S)-N-[(2-methyl-1,3-thiazol-5-yl)-methyl]-5-{[2-(pyridin-2-yl)cyclopropyl]methoxy} pyrazolo[1,5-a]pyrimidin-7-amine]	0.11 nM
Cc1nc(C)c(CNc2cc(C3CC3)nc3ccnn23)s1 [Compound 1-9, 5-cyclopropyl-N-[(2,4-dimethyl-1,3-thiazol-5-yl)methyl]pyrazolo [1,5-a]pyrim-idin-7-amine]	9.2 nM
COc1ccc(CCCCc2cc(NCc3sc(C)nc3C)n3nccc3n2)nc1 [Compound 1-10, N-[(2,4-dimethyl-1,3-thiazol-5-yl)methyl]-5-[4-(5-methoxy-pyridin-2-yl)butyl]pyrazolo [1,5-a]pyrimidin-7-amine]	0.37 nM
Cc1nc(C)c(CNc2cc(CCC#Cc3ccc4ccccc4n3)nc3ccnn23)s1 [Compound 1-15, N-[(2,4-dimethyl-1,3-thiazol-5-yl)methyl]-5-[4-(quinolin-2-yl)but-3-yn-1-yl]pyrazolo[1,5-a] pyrimidin-7-amine]	0.14 nM
Cc1nnc(CNc2c(F)c(OC[C@H]3C[C@@H]3c3ccccn3)nc3ccnn23)s1 [Compound 1-18, 6-fluoro-N-[(5-methyl-1,3,4-thiadiazol-2-yl)methyl]-5-{[(1S,2S)-2-(pyridin-2-yl)cyclopropyl]methoxy} pyrazolo[1,5-a] pyrimidin-7-amine]	0.08 nM
Cc1c(OC[C@H]2C[C@@H]2c2ccccn2)nc2ccnn2c1NCc1cnn(C)c1 [Compound 1-20, 6-methyl-N-[(1-methyl-1H-pyrazol-4-yl)methyl]-5-{[(1S,2S)-2-(pyridin-2-yl)cyclopropyl]methoxy} pyrazolo[1,5-a] pyrimidin-7-amine]	2.52 nM
Cc1ccc([C@H]2C[C@@H]2COc2cc(Oc3ccc(C)nc3)n3nccc3n2)nc1 [Compound 1-22, 5-{[(1S,2S)-2-(5-methylpyridin-2-yl)cyclopropyl]methoxy}-7-[(6-methylpyridin-3-yl)oxy]pyrazolo[1,5-a] pyrimidine]	20 nM
Cc1nc(C)c(CNc2cc(C(=O)NC[C@H]3C[C@@H]3c3ccc4ccccc4n3)nc3ccnn23)s1 [Compound 1-23, 7-((2,4-dimethylthiazol-5-yl)methylamino)-N-(((1S,2S)-2-(quinolin-2-yl)cyclopropyl)methyl) pyrazolo[1,5-a] pyrimidine-5-carboxamide]	0.18 nM
Cc1nc(C)c(CNc2cc(C(=O)NCCc3ccccn3)nc3ccnn23)s1 [Compound 1-25, 7-((2,4-dimethylthiazol-5-yl)methylamino)-N-(2-(pyridin-2-yl)ethyl)pyrazolo [1,5-a] pyrimidine-5-earboxanaide]	1.1 nM
